Data: patent US7855049B2, “Inositol pyrophosphates determine exocytotic capacity” (BioCrine AB, priority 2007, dated 2010)

How the values were obtained:
Assay type in all cases: cell-based
[1] = system: mouse β-cells; experiment: Capacitance measurement of exocytosis, standard whole-cell patch, inositol phosphate in the pipette-filling solution
Description: Cells expressing EGFP were selected for capacitance measurements. Exocytosis was monitored as changes in cell capacitance using either the perforated patch or standard whole-cell configuration of the patch-clamp technique and an EPC9 patch-clamp amplifier (Heka Elektronik, Lambrecht/Pfalz, Germany). The pipette solution for the perforated patch configuration consisted of (in mM) 76 Cs2SO4, 10 NaCl, 10 KCl, 1 MgCl2, 5 HEPES (pH 7.35 with CsOH) and 0.24 mg/ml amphotericin B. Perforation required a few minutes, and the voltage clamp was considered satisfactory when the Gseries (series conductance) was stable and >35 nS. The pipette solution used for standard whole-cell recordings contained (in mM) 125 Cs-glutamate, 10 CsCl, 10 NaCl, 1 MgCl2, 5 HEPES, 0.05 EGTA, 0.01 GTP and 3 MgATP (pH 7.15 using CsOH). InsP7 isomers were dissolved in the pipette-filling solution to the final concentrations indicated in the text and kept on ice until use. The extracellular medium was composed of (in mM) 118 NaCl, 20 tetraethylammonium-Cl, 5.6 KCl, 1.2 MgCl2, 2.6 CaCl2, 5 HEPES (pH 7.40 using NaOH) and 3 glucose. The stimulation protocol consisted of trains of four 500-ms depolarizations applied at 1 Hz and went from −70 mV to zero mV. The capacitance measurements were performed at 33° C. and the recording chamber was perfused at a rate of 1.5 ml/min.
An important concern is that IP6K's can also use InsP5 as a substrate, generating a different subset of inositol pyrophosphates (4). Therefore, it was necessary to verify that InsP7 is able to directly promote exocytosis. The mammalian InsP7 is the 5-isomer and this was used in detailed experiments (FIG. 3A-D). We also assessed other theoretical isomers of InsP7 (FIG. 3E). To measure the effects of 5-InsP7 on exocytosis, we applied trains of depolarizations in standard whole-cell experiments where the β-cell was dialyzed with a solution containing 3 μM InsP7. Following establishment of the whole-cell configuration, the cell was allowed two minutes equilibration period. A train consisting of four 500 ms depolarizations from −70 mV to 0 mV was then applied to evoke exocytosis. In a series of six experiments, the total increase in cell capacitance amounted to 231+/−12 fF (P<0.01) in the presence of 3 μM InsP7 in the pipette-filling solution and 77+/−11 fF under control conditions, respectively (FIG. 3A). […] The stimulatory action of 5-InsP7 on exocytosis was concentration dependent (FIG. 3D). […] At higher concentrations, 5-InsP7 stimulated exocytosis by 90-410%. Approximating the average data points to the Hill equation yielded a half-maximal stimulatory effect of 1.02 μM and a co-operativity factor of 1.5. […] Thus, 5-InsP7 dose-dependently enhances exocytosis within the physiological range of InsP7 concentrations (1-10 μM). […] This is because the effect of InsP6 on exocytosis can only be discerned under conditions in which endocytosis is inhibited (15). This is not the case for InsP7. […] Our data illustrate that InsP7 and InsP6 have distinct effects on exocytosis.

[2] = system: whole-cell Ca2+ current in mouse β-cells; experiment: Whole-cell Ca2+ current (integrated Ca2+ current) during depolarization train; details: 3 μM in the pipette-filling solution
Description: FIG. 3. InsP7 dose-dependently promotes Ca2+-dependent exocytosis. Individual mouse β-cells were subjected to a train of four 500-ms depolarizations using the standard whole-cell patch configuration. (A) Exocytosis was observed under control conditions and in the presence of 3 μM 5-InsP7 in the pipette-filling solution. 5-InsP7 was allowed to diffuse into the cell for 2 min before initiation of the experiment. (B) Histogram summarizing the average increases in cell capacitance plotted against the individual depolarizations as well as the total increases in cell capacitance at the end of the train in the absence or presence of 3 μM 5-InsP7 in the pipette-filling solution. (C) Histogram showing integrated Ca2+ current (QCa) plotted against the individual depolarizations in the absence or presence of 3 μM InsP7 in the pipette-filling solution. (D) Concentration dependence of stimulatory action of 5-InsP7 on exocytosis evoked by a single membrane depolarization from −70 mV to zero. The curve represents a least-squares fit of the mean data points to the Hill equation. […]
Cells expressing EGFP were selected for capacitance measurements. Exocytosis was monitored as changes in cell capacitance using either the perforated patch or standard whole-cell configuration of the patch-clamp technique and an EPC9 patch-clamp amplifier (Heka Elektronik, Lambrecht/Pfalz, Germany). […]

[3] = system: mouse β-cells; experiment: Capacitance measurement of exocytosis, standard whole-cell patch, inositol phosphate in the pipette-filling solution; parameters: dose or concentration left out as unconfirmed; details: at InsP7; single depolarization from −70 mV to zero
[4] = in the presence of 5-InsP7 (3 μM)

EC50 ([1]; Hill equation fit of average data points, read-out: half-maximal stimulatory effect on exocytosis) | SMILES | net effect on exocytosis/endocytosis ([1]; same conditions as for InsP7, 10 μM InsP6 in the pipette-filling solution) | selective promotion of secretion from the RRP ([1]; when endocytosis is inhibited (data not shown)) | change in the whole-cell Ca2+ current [2] | stimulation of exocytosis at low concentration [3] | concentration giving maximal stimulation of exocytosis [1] | total increase in cell capacitance ([1]; 3 μM InsP7 in the pipette-filling solution, train of four 500 ms depolarizations, six experiments) | maximal stimulation of exocytosis ([1]; at InsP7 ≧10 μM) | stimulation of exocytosis ([1]; at higher concentrations (above 0.1), single depolarization) | capacitance increase evoked by the first depolarization [1, 4] | exocytosis in response to the subsequent 3 depolarizations [1, 4] | exocytotic response in cells with IP6K1 silenced ([1]; whole cell mode, IP6K1 siRNA-treated primary β-cells)
 | O=P(O)(O)O[C@H]1[C@H](OP(=O)(O)O)[C@@H](OP(=O)(O)O)[C@H](OP(=O)(O)O)[C@@H](OP(=O)(O)O)[C@H]1OP(=O)(O)O [InsP6] | promote endocytosis not exocytosis | does not selectively promote secretion from the RRP |  |  |  |  |  |  |  |  | 
1020 nM | O=P(O)(O)OC1[C@@H](OP(=O)(O)O)[C@H](OP(=O)(O)O)C(OP(=O)(O)OP(=O)(O)O)[C@H](OP(=O)(O)O)[C@H]1OP(=O)(O)O (stereo partly drawn) [5-InsP7, 5-Diphosphoinositol pentakisphosphate] |  |  | not associated with a change | No stimulation | ≥ 10 µM | 231+/−12 fF | > 380% | 90-410% | strongly stimulated | only little effect | restore normal exocytotic response
